Results on four molecules are retold here after publication PMC7274539, “The selective glucocorticoid receptor antagonist CORT125281 has tissue-specific activity” (The Journal of Endocrinology, 2020).

For orientation: IC50 means the point on the concentration scale where inhibition reaches its midpoint.

The target of experiment [1] is T1, human GR ligand-binding domain (Homo sapiens, UniProt P04150).
T1 construct: purchased Invitrogen PV4689
T1 sequence (P04150 524-758 limits assumed): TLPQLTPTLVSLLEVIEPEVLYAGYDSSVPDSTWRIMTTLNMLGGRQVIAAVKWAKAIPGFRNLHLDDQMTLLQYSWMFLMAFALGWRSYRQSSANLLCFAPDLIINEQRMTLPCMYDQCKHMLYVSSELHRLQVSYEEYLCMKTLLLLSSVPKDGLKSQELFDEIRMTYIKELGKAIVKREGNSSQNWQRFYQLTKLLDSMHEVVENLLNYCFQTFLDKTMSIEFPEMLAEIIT
Description: MARCoNI peptide interaction profiling (coregulator-nuclear receptor interaction). It counts as biochemical. The following applies: for interactions at a number of motifs (dexamethasone-exclusive cluster): 1 µM; for ligand-induced interaction at the majority of coregulator motifs: cortisol 1 µM, dexamethasone 1 µM. The protocol: As the assay utilizes human GR, experiments were performed with cortisol rather than corticosterone. […] Incubation was performed at 20°C in a PamStation96 (PamGene International, Den Bosch, Netherlands) for 40 min. Receptor binding to each peptide on the array, reflected by a fluorescent signal, was quantified by analysis of .tiff images using BioNavigator software (PamGene International).

Experiment [2] concerns male C57Bl/6J mice. Description: Subchronic corticosterone exposure (pellet): body composition, organ weights, leukocytes, plasma insulin, glucose, lipids. The class given is in vivo. The protocol:
(§1) All studies involving animals were approved by the institutional ethics committee on animal care and experimentation at the Leiden University Medical Center. The 8-week old male C57Bl/6J mice (Charles River) were housed in ventilated cages with a 12 h light:12 h darkness regime and ad libitum access to food and water. In the acute corticosterone exposure experiments, mice received a synthetic chow diet (Research Diets, New Brunswick, NJ, USA) containing vehicle or CORT125281 (6, 20 or 60 mg/kg/day, Corcept Therapeutics, Menlo Park, CA, USA) for 6 days. […] Mice were treated daily with vehicle, 60 mg/kg mifepristone (Corcept Therapeutics) or 60 mg/kg CORT125281 (dissolved in PBS with 0.1% Tween 80 and 0.5% hydroxypropylmethylcellullose, Corcept Therapeutics) via oral gavage for 5 days, after which mice were killed by CO2 inhalation. Throughout the experiment, body weight was monitored and body composition was determined with EchoMRI™ (Frankfurt, Germany). After 5 days, blood was collected from the lateral tail vain in paraoxon-coated capillaries after a 6-h fast. Plasma triglyceride, total cholesterol, free fatty acid, glucose and insulin levels were determined using commercially available kits (Roche; Instruchemie, Delfzijl, Netherlands and Crystal Chem, Zaandam, Netherlands). Blood concentrations of the major leukocyte classes, that is, lymphocytes, monocytes and eosinophils, were determined in whole blood using an automatic veterinary hematology analysis (Sysmex XT-2000iV; Goffin Meyvis, Etten-Leur, the Netherlands).
(§2) In both acute and subchronic corticosterone experiments, relevant tissues (including quadriceps muscle, interscapular BAT, gonadal white adipose tissue (WAT), adrenals, spleen, thymus, pituitary and hippocampus) were collected to determine tissue weight and/or for further molecular analysis.

The test system of experiment [3] is GR transcriptional activity. Description: Subchronic corticosterone exposure: RT-qPCR of GR and insulin target genes in tissues. It counts as in vivo, C57Bl/6J mice. The protocol:
as §1, §2
(§3) Total RNA was isolated from snap-frozen tissues using TriPure isolation reagent (Roche). After reverse transcription to cDNA (Promega), RT-qPCR was performed using IQ SYBR-Green supermix and MyIQ thermal cycler (Bio-RAD CFX96). Primers were tested for high efficiency (90–110%) and for amplification of a single PCR product. All primer sequences are listed in Supplementary Table 1 (see section on supplementary materials given at the end of this article), with the exception of Ncor1 and Ncor2 which were purchased from Qiagen. Fold change expression was calculated using the 2^−ΔΔ^CT method.
In general terms: Real-time PCR tracks product formation cycle by cycle.

The subject of experiment [4] is GR. Further details: method as in Lahteenmaki et al. 1987, Kroon et al. 2018. The following applies: half maximal inhibitory concentration of the GR antagonist; ref Lahteenmaki et al. 1987, Kroon et al. 2018; cited from earlier work.
Experiment [5] deals with progesterone receptor. Set-up: method as in earlier work. The settings on record: ref Jung-Testas & Baulieu 1983, Gaillard et al. 1984, Kloosterboer et al. 1995, Kroon et al. 2018; cited from earlier work.
Experiment [6] concerns GR. The settings on record: mifepristone; ref Havel et al. 1996, van den Heuvel et al. 2016, Kroon et al. 2018; cited from earlier work.
Experiment [7] has as its system HPA-axis activity. Further details: method as in Kroon et al. 2018. The settings on record: chronic administration via the food; ref Kroon et al. 2018; cited from earlier work.
Experiment [8] relates to androgen receptor. The following applies: ref Jung-Testas & Baulieu 1983, Gaillard et al. 1984, Kloosterboer et al. 1995, Kroon et al. 2018; cited from earlier work.
For experiment [9], the system named is GR transcriptional activity. Briefly: Acute corticosterone exposure or basal conditions: RT-qPCR of GR target genes in tissues. The settings on record: corticosterone 1.5 mg/kg s.c., 1 h; liver, muscle, BAT, WAT, hippocampus; except Sgk1 in muscle, hippocampus and Mt2a in hippocampus. It counts as in vivo, C57Bl/6J mice. The protocol: as §1, §2, §3
Where [10] appears, read: mifepristone 0.1 µM, CORT125281 1 µM.
The mark [11] stands for this setting: corticosterone pellet 5 days, 60 mg/kg/day oral gavage.
[12] abbreviates: corticosterone pellet 12.5 mg, 5 days, no antagonist.

For `C[C@]12CCC(=O)C=C1CC[C@@H]1[C@@H]2[C@@H](O)C[C@@]2(C)[C@H]1CC[C@]2(O)C(=O)CO` [cortisol], the “interactions at a number of motifs (dexamethasone-exclusive cluster)” value in [1] is given as “without effect”. In [1] (setting [10]), the “ligand-induced interaction at the majority of coregulator motifs” value was “induced motif binding”.

For `CC#C[C@]1(O)CC[C@H]2[C@@H]3CCC4=CC(=O)CCC4=C3[C@@H](c3ccc(N(C)C)cc3)C[C@@]21C` [mifepristone], in experiment [1] (setting [10]), the “binding of corepressor motifs of NCOR1 and NCOR2 (SMRT) by ligand-GR complex” value was “strongly bound”. Also, in experiment [2] (setting [11]), the HOMA-IR result is “improved”; the “corticosterone-induced decrease of spleen weight” value is on record as “prevented”; the corticosterone-induced fat mass entry is “non-significantly reduced”; the “corticosterone-induced hyperlipidaemia (plasma triglycerides, total cholesterol)” value is given as “seemed to modestly reduce”. Also, in [2] (setting [11]), the “corticosterone-induced immune suppression (total white blood cells, lymphocytes, monocytes, eosinophils)” value is listed as “fully prevented”; the “free fatty acid levels” value is reported as “did not affect”; the glucose levels entry is given as “improved”; the “lean mass (reduced by corticosterone)” value was “not altered”. For the same molecule, the corticosterone-induced hyperinsulinemia entry in experiment [2] (corticosterone pellet 5 days, 60 mg/kg/day oral gavage, 6-h fast) is listed as “fully prevented”. Also, the “basal mRNA expression of some GR target genes (Gilz in liver, muscle and BAT; Mt2a in BAT)” value in experiment [3] (60 mg/kg/day oral gavage 5 days, sham pellet) was “reduced”. Further, in [3] (corticosterone pellet 5 days, 60 mg/kg/day oral gavage, liver, muscle, BAT, WAT, hippocampus), the “corticosterone-induced expression of GR target genes (Fkbp5, Gilz, Sgk1, Mt2a)” value is reported as “effectively prevented”. The IC50 in experiment [4] is 43 nM. The “activity at the progesterone receptor” value in experiment [5] is recorded as “antagonizes”. The “partial agonism at GR” value in [6] is listed as “partial agonistic properties”. Besides, the endogenous corticosterone levels entry in experiment [7] was “suppressed”. Moreover, in [8], the “activity at the androgen receptor” value was “antagonizes”.

Regarding `C[C@@H]1C[C@H]2[C@@H]3CCC4=CC(=O)C=C[C@]4(C)[C@@]3(F)[C@@H](O)C[C@]2(C)[C@@]1(O)C(=O)CO` [dexamethasone], in experiment [1], the “interactions at a number of motifs (dexamethasone-exclusive cluster)” value is “induced substantial interactions”. The “ligand-induced interaction at the majority of coregulator motifs” value in [1] (setting [10]) is “induced motif binding”.

With `C[C@]12C[C@H](O)[C@H]3[C@@H](CCC4=CC(=O)CC[C@@]43C)[C@@H]1CC[C@@H]2C(=O)CO` [corticosterone], the “expression of GR target genes Fkbp5, Gilz, Sgk1, Mt2a after corticosterone injection” value in [9] is listed as “upregulated expression of all GR target genes”. Also, in experiment [2] (setting [12]), the “fat mass under subchronic corticosterone exposure” value is recorded as “increase”, the “lean mass under subchronic corticosterone exposure” value is given as “reduced”, the “plasma insulin under subchronic corticosterone exposure” value is “induced hyperinsulinemia” and the “spleen weight under subchronic corticosterone exposure” value is on record as “decreased”. Also, the Eosinophil count result in experiment [2] (corticosterone pellet 5 days, no antagonist) is “Not detected”.
